One series is described as follows: Mouse plasma stability. Particulars: % remaining at 2 hours.
Series [1] in a line: Human liver microsome stability. Particulars: liver microsomes.
Procedure: (§1) LM – Liver microsome (half-life in minutes)
PPB – Plasma Protein Binding
(§2) PS – Plasma Stability (% remaining at 2 hours)
A further series concerns the target CYP2D6 (Homo sapiens, UniProt P10635). Kind of series: CYP2D6 inhibition.
The next series can be described thus: Human plasma stability. To be noted: % remaining at 2 hours.
Series [2] can be described thus: Mouse liver microsome stability. To be noted: liver microsomes.
Procedure: as §1
PPB – Plasma Protein Binding
as §2
Series [3] can be described thus: Single-dose pharmacokinetics (plasma and brain) in C57BL/6J mice. Type of series: in vivo, mouse.
Series [4] concerns the target hERG (human ether-a-go-go K+ ion channel) (Homo sapiens, UniProt Q12809). Briefly: hERG QPatch assay.
Procedure: as §1
PPB – Plasma Protein Binding
as §2
The next series deals with T1, CYP1A2 (Homo sapiens, UniProt P05177).
T1 sequence (P05177 1-516): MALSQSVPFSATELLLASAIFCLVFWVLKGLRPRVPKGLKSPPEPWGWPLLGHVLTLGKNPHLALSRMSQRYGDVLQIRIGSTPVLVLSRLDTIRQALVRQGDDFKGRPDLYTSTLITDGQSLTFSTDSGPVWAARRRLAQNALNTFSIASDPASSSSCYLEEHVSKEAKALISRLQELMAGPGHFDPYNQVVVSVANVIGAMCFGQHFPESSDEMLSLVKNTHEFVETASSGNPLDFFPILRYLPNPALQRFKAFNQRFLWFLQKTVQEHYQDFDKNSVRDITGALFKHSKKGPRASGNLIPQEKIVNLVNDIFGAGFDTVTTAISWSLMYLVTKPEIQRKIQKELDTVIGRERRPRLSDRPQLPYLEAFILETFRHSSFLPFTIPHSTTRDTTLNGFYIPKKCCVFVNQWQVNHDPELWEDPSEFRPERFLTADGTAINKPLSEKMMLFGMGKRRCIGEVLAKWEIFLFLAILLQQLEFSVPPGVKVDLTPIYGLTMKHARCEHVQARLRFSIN
Briefly: CYP1A2 inhibition.

Series [5] can be described thus: Human plasma protein binding.
Procedure: as §1
PPB – Plasma Protein Binding
as §2
Series [6] in a line: Mouse plasma protein binding. To be noted: Mouse % PPB, plasma protein binding.
Procedure: as §1
PPB – Plasma Protein Binding
as §2
For the next series, the target named is CYP3A4 (Homo sapiens, UniProt P08684). Kind of series: CYP3A4 inhibition.
The target of another series is CYP2C9 (Homo sapiens, UniProt P11712). Briefly: CYP2C9 inhibition.
Chain of CYP2C9 (P11712 whole entry): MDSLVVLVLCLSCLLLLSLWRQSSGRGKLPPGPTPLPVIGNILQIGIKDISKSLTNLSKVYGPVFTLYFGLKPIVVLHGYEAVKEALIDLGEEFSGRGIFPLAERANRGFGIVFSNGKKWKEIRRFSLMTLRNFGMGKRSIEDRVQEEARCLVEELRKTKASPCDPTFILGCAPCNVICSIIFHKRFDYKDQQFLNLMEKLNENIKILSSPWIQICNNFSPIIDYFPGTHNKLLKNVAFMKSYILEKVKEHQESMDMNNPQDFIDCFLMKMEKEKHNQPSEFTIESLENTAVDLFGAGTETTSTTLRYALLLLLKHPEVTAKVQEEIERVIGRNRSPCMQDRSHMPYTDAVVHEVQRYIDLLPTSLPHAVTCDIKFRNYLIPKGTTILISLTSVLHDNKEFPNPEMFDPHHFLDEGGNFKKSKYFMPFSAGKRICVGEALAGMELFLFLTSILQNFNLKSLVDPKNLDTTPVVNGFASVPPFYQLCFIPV

Chain of CYP2D6 (P10635 whole entry): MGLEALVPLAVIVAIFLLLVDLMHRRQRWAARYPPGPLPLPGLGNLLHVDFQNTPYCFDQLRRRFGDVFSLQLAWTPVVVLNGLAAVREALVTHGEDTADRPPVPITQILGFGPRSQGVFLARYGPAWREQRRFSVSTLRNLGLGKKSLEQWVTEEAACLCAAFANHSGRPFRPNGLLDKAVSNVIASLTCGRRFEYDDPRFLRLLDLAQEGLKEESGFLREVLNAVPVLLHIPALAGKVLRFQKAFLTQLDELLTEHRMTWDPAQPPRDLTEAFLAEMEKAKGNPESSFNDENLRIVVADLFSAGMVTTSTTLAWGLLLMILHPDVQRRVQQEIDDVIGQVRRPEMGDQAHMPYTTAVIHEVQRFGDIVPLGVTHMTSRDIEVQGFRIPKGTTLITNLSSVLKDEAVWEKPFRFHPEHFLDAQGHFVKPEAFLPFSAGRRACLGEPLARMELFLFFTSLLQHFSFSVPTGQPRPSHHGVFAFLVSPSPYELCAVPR
Chain of CYP3A4 (P08684 whole entry): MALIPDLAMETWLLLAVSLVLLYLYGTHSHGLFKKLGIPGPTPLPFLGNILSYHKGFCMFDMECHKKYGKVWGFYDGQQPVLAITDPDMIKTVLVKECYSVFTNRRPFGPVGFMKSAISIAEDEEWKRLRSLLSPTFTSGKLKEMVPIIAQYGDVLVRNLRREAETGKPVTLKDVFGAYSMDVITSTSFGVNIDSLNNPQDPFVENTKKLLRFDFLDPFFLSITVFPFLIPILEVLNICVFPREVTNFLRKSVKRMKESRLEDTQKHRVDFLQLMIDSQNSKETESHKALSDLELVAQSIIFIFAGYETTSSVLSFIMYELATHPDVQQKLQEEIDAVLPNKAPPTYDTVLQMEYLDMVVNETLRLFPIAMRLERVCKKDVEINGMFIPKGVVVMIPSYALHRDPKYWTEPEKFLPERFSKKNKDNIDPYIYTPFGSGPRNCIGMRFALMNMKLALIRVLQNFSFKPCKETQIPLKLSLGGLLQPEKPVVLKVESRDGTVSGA
Chain of hERG (human ether-a-go-go K+ ion channel) (Q12809 whole entry): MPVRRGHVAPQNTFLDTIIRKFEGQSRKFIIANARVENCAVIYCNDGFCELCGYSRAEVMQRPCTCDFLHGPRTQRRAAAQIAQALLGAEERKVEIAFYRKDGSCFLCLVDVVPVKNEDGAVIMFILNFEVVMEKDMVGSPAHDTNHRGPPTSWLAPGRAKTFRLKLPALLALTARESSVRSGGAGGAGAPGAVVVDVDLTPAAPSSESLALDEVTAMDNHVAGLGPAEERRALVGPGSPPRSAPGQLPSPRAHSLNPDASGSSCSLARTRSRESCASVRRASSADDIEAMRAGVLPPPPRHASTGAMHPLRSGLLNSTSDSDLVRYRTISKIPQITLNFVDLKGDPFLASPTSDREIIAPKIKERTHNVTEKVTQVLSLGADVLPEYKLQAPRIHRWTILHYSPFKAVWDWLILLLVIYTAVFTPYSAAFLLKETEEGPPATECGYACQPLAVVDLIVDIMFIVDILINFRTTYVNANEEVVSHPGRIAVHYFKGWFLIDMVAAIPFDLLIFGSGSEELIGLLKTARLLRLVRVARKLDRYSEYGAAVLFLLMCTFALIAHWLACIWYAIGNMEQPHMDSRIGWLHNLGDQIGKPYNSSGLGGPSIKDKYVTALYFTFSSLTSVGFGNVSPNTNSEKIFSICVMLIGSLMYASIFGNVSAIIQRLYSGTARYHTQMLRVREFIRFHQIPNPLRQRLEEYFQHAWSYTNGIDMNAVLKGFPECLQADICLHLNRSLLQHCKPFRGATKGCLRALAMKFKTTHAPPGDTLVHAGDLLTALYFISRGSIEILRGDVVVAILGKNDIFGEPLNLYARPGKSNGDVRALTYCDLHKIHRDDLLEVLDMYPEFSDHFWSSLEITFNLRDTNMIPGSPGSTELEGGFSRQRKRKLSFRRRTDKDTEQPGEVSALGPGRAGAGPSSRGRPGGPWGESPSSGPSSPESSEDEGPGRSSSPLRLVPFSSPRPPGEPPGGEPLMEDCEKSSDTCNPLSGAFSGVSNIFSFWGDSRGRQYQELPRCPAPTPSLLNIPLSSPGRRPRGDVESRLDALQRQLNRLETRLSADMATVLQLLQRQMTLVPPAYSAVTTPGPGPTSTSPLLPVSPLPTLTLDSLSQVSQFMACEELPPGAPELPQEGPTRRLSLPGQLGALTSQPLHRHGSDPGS
Procedure for CYP2C9: as §1
PPB – Plasma Protein Binding
as §2
Procedure for CYP2D6: as §1
PPB – Plasma Protein Binding
as §2
Procedure for CYP3A4: as §1
PPB – Plasma Protein Binding
as §2
Procedure for Human plasma stability: as §1
PPB – Plasma Protein Binding
as §2
Procedure for Mouse plasma stability: as §1
PPB – Plasma Protein Binding
as §2

With `CC(C)(O)c1coc(S(=O)(=O)NC(=O)Nc2c3c(cc4c2CCC4)CCC3)c1` [MCC950, reference compound], in the series “Mouse plasma stability”, the “Mouse % PS” value was found to be 99%. In addition, the half-life in series [1] and in series [2] was more than 2.42 h each time. The IC50 (commonly the concentration that gives 50% inhibition) was more than 50 µM on CYP2D6, 20 µM against CYP1A2, more than 50 µM at CYP3A4 and 43 µM against CYP2C9. Moreover, in “Human plasma stability”, the “Human % PS” value turned out to be 96%. Also, in series [3] (fasted male C57BL/6J mice, i.v. 4 mg/kg or oral 20 mg/kg), the “Tolerability in single-dose pharmacokinetic studies” value was “well tolerated”. Further, the bioavailability – broadly, dose-corrected exposure relative to a reference, in per cent – in series [3] (male, C57BL/6J, mouse, plasma, oral, mice, p.o. 20 mg/kg vs i.v. 4 mg/kg) worked out at 71%. In [3] (mice, p.o. 20 mg/kg, plasma), the Oral half-life was 2.4 h. Besides, the inhibition (as a rule, the percentage by which the read-out fell short of the control) at 30 µM in [4] was 21 ± 4.3%. Besides, the unbound share (fraction unbound) (in general, free concentration divided by total concentration) is 0.005 in series [5] and 0.006 in series [6].

The values above are taken from PMC13058460, “PET-MRI biomarkers reveal efficacy of a novel NLRP3 inhibitor in Parkinson’s disease models” (Brain, 2025).
